Measurements reported in patent US20120283216A1, “FUNGICIDAL 2-(BICYCLIC ARYLOXY)CARBOXAMIDES” (priority 2009, published 2012).

Key:
Type in all cases: in vivo
[1] = system: Blumeria graminis f. sp. tritici; assay: Test A: wheat powdery mildew, preventive spray on wheat seedlings, visual disease rating; details: preventive spray at 40 ppm, rated 8 days after inoculation; for pest or weed control at 40 ppm: Blumeria graminis, 192 h, read-out: Test A disease control rating (100 = 100% disease control, 0 = no disease control relative to the controls)
Source text: General protocol for preparing test suspensions for Tests A-C: the test compounds were first dissolved in acetone in an amount equal to 11% of the final volume and then suspended at the desired concentration (in ppm) in acetone and purified water (50/50 mix by volume) containing 250 ppm of the surfactant Trem® 014 (polyhydric alcohol esters). The resulting test suspensions were then used in Tests A-C. Spraying a 40 ppm test suspension to the point of run-off on the test plants was the equivalent of a rate of 800 g/ha. The test suspension was sprayed to the point of run-off on wheat seedlings. The following day the seedlings were inoculated with a spore dust of Blumeria graminis f. sp. tritici, (the causal agent of wheat powdery mildew) and incubated in a growth chamber at 20° C. for 8 days, after which time disease ratings were visually made. Results for Tests A-C are given in Table A. In the Table, a rating of 100 indicates 100% disease control and a rating of 0 indicates no disease control (relative to the controls). A dash (-) indicates no test results. All results are from applications of 40 ppm.

Botrytis cinerea = assay: Test C: tomato botrytis, preventive spray on tomato seedlings, visual disease rating; details: preventive spray at 40 ppm, rated after 48 h + 3 days; for pest or weed control at 40 ppm: Botrytis cinerea, 120 h, read-out: Test C disease control rating (100 = 100% disease control, 0 = no disease control relative to the controls)
Source text: General protocol for preparing test suspensions for Tests A-C: the test compounds were first dissolved in acetone in an amount equal to 11% of the final volume and then suspended at the desired concentration (in ppm) in acetone and purified water (50/50 mix by volume) containing 250 ppm of the surfactant Trem® 014 (polyhydric alcohol esters). The resulting test suspensions were then used in Tests A-C. Spraying a 40 ppm test suspension to the point of run-off on the test plants was the equivalent of a rate of 800 g/ha.
The test suspension was sprayed to the point of run-off on tomato seedlings. The following day the seedlings were inoculated with a spore suspension of Botrytis cinerea (the causal agent of tomato botrytis) and incubated in saturated atmosphere at 20° C. for 48 h, and then moved to a growth chamber at 27° C. for 3 additional days, after which time disease ratings were visually made.
Results for Tests A-C are given in Table A. In the Table, a rating of 100 indicates 100% disease control and a rating of 0 indicates no disease control (relative to the controls). A dash (-) indicates no test results. All results are from applications of 40 ppm.

Septoria tritici = assay: Test B: wheat leaf blotch, preventive spray on wheat seedlings, visual disease rating; details: preventive spray at 40 ppm, rated after 48 h + 19 days; for pest or weed control at 40 ppm: Zymoseptoria tritici, 504 h, read-out: Test B disease control rating (100 = 100% disease control, 0 = no disease control relative to the controls)
Source text: General protocol for preparing test suspensions for Tests A-C: the test compounds were first dissolved in acetone in an amount equal to 11% of the final volume and then suspended at the desired concentration (in ppm) in acetone and purified water (50/50 mix by volume) containing 250 ppm of the surfactant Trem® 014 (polyhydric alcohol esters). The resulting test suspensions were then used in Tests A-C. Spraying a 40 ppm test suspension to the point of run-off on the test plants was the equivalent of a rate of 800 g/ha. The test suspension was sprayed to the point of run-off on wheat seedlings. The following day the seedlings were inoculated with a spore suspension of Septoria tritici (the causal agent of wheat leaf blotch) and incubated in a saturated atmosphere at 20° C. for 48 h, and then moved to a growth chamber at 20° C. for 19 days, after which time disease ratings were visually made. Results for Tests A-C are given in Table A. In the Table, a rating of 100 indicates 100% disease control and a rating of 0 indicates no disease control (relative to the controls). A dash (-) indicates no test results. All results are from applications of 40 ppm.

Row | SMILES | pest or weed control at 40 ppm [1] [%] | pest or weed control at 40 ppm (Botrytis cinerea) [%] | pest or weed control at 40 ppm (Septoria tritici) [%] | Test A disease control rating (100 = 100% disease control, 0 = no disease control relative to the controls) [1] [%] | Test C disease control rating (100 = 100% disease control, 0 = no disease control relative to the controls) (Botrytis cinerea) [%] | Test B disease control rating (100 = 100% disease control, 0 = no disease control relative to the controls) (Septoria tritici) [%]
1 | CCC(Oc1ccc2ccc(C#N)cc2c1)C(=O)NC(C)(C)COCOC (stereo not drawn) [Compound 22, 2-[(7-cyano-2-naphthalenyl)oxy]-N-[2-(methoxymethoxy)-1,1-dimethylethyl]butanamide] | 93 | 100 | 100 |  |  | 
2 | COCC(C)(C)NC(=O)C(OC)Oc1ccc2ccc(Br)cc2c1 (stereo not drawn) [Compound 90, 2-[(7-bromo-2-naphthalenyl)oxy]-2-methoxy-N-(2-methoxy-1,1-dimethylethyl)acetamide] | 100 | 100 | 100 |  |  | 
3 | CCOc1ccc2ccc(OC(OCC)C(=O)NC(C)(C)C)cc2c1 (stereo not drawn) [Compound 121] | 29 | 99 | 100 |  |  | 
4 | CCC(Oc1ccc2ccc(N)cc2c1)C(=O)NC(C)(C)C (stereo not drawn) [Compound 29] | 0 | 95 | 76 |  |  | 
5 | C#Cc1ccc2ncc(OC(CC)C(=O)NC(C)(C)C#N)cc2c1 (stereo not drawn) [Compound 152] |  |  |  | 88 | 94 | 100
6 | C#CC(C)(C)NC(=O)C(OC)Oc1ccc2ccc(Br)cc2c1 (stereo not drawn) [Compound 94] |  |  |  | 99 | 100 | 100
7 | CCOCC(C)(C)NC(=O)C(CC)Oc1cnc2ccc(Cl)cc2c1 (stereo not drawn) [Compound 50] |  |  |  | 84 | 90 | 98
8 | CCC(Oc1ccc2ccc(O)cc2c1)C(=O)NC(C)(C)C (stereo not drawn) [Compound 89] | 0 | 86 | 63 |  |  | 
9 | CCOC(Oc1ccc2ccc(OC)cc2c1)C(=O)NC(C)(C)COC (stereo not drawn) [Compound 113] |  |  |  | 97 | 99 | 100
10 | CCC(Oc1cnc2ccc(Br)cc2c1)C(=O)NC(C)(C)COC (stereo not drawn) [Compound 48] |  |  |  | 96 | 99 | 99
11 | CCC(C)(C)NC(=O)C(OC)Oc1ccc2ccc(Br)cc2c1 (stereo not drawn) [Compound 101] |  |  |  | 92 | 100 | 100
12 | C#CC(C)(C)NC(=O)C(OCC)Oc1ccc2ccc(OC)cc2c1 (stereo not drawn) [Compound 115] |  |  |  | 79 | 97 | 99
13 | COCC(C)(C)NC(=O)C(OC)Oc1ccc2ccc(I)cc2c1 (stereo not drawn) [Compound 103, 2-[(7-iodo-2-naphthalenylyl)oxy]-2-methoxy-N-(2-methoxy-1,1-dimethylethyl)acetamide] |  |  |  | 100 | 100 | 100
14 | CCOc1ccc2ccc(OC(OCC)C(=O)NC(C)(C)COC)cc2c1 (stereo not drawn) [Compound 120] |  |  |  | 90 | 98 | 99
15 | C#CC(C)(C)NC(=O)C(CC)Oc1ccc2ccc(OCCC)cc2c1 (stereo not drawn) [Compound 129] |  |  |  | 96 | 99 | 99
16 | C#Cc1ccc2ncc(OC(OC)C(=O)NC(C)(C)C)cc2c1 (stereo not drawn) [Compound 163] |  |  |  | 99 | 100 | 100
17 | C#CC(C)(C)NC(=O)C(CC)Oc1cnc2ccc(Cl)cc2c1 (stereo not drawn) [Compound 41] |  |  |  | 0 | 96 | 96
18 | CCC(Oc1ccc2ccc(Br)cc2c1)C(=O)NC(C)(C)COC=O (stereo not drawn) [Compound 18] |  |  |  | 99 | 100 | 99
19 | C#CCOc1ccc2ccc(OC(CC)C(=O)NC(C)(C)COC)cc2c1 (stereo not drawn) [Compound 133] |  |  |  | 74 | 100 | 99
20 | C#CCOc1ccc2ccc(OC(OC)C(=O)NC(C)(C)CC)cc2c1 (stereo not drawn) [Compound 137] |  |  |  | 87 | 99 | 94
21 | C#Cc1ccc2ncc(OC(OC)C(=O)NC(C)(C)COC)cc2c1 (stereo not drawn) [Compound 162] |  |  |  | 100 | 100 | 100
22 | C#CCOc1ccc2ccc(OC(OC)C(=O)NC(C)(C)COC)cc2c1 (stereo not drawn) [Compound 130] |  |  |  | 21 | 100 | 98
23 | CC#Cc1ccc2ccc(OC(CC)C(=O)NC(C)(C)COC)cc2c1 (stereo not drawn) [Compound 107, N-(2-methoxy-1,1-dimethylethyl)-2-[[7-(1-propyn-1-yl)-2-naphthalenyl]oxy]butanamide] | 100 | 99 | 100 |  |  | 
